Assay results published in ChEMBL document CHEMBL1146624, “Synthesis and evaluation of 4-anilino-6,7-dialkoxy-3-quinolinecarbonitriles as inhibitors of kinases of the Ras-MAPK signaling cascade” (Bioorg Med Chem Lett, 2003).

What was measured:
[1] = molecular target: T1, Dual specificity mitogen-activated protein kinase kinase 1 (Homo sapiens, UniProt Q02750)
[2] = system: Caco-2; assay: cells; settings: Homo sapiens
[3] = system: LoVo; assay: cells; settings: Homo sapiens
[4] = molecular target: Serine/threonine-protein kinase AKT (Homo sapiens, UniProt P31751+Q9Y243+P31749); assay: Inhibition of Akt phosphorylation in LoVo cells; type: functional, cell-based
[5] = molecular target: T1, Dual specificity mitogen-activated protein kinase kinase 1; assay: Inhibition of MEK1 phosphorylation in LoVo cells; type: functional, cell-based
[6] = system: LoVo; assay: Inhibition of tyrosine phosphorylation in LoVo cells; type: functional, cell-based; settings: Homo sapiens
[7] = molecular target: Epidermal growth factor receptor (Homo sapiens, UniProt P00533)
Sequence of Epidermal growth factor receptor (P00533 whole entry): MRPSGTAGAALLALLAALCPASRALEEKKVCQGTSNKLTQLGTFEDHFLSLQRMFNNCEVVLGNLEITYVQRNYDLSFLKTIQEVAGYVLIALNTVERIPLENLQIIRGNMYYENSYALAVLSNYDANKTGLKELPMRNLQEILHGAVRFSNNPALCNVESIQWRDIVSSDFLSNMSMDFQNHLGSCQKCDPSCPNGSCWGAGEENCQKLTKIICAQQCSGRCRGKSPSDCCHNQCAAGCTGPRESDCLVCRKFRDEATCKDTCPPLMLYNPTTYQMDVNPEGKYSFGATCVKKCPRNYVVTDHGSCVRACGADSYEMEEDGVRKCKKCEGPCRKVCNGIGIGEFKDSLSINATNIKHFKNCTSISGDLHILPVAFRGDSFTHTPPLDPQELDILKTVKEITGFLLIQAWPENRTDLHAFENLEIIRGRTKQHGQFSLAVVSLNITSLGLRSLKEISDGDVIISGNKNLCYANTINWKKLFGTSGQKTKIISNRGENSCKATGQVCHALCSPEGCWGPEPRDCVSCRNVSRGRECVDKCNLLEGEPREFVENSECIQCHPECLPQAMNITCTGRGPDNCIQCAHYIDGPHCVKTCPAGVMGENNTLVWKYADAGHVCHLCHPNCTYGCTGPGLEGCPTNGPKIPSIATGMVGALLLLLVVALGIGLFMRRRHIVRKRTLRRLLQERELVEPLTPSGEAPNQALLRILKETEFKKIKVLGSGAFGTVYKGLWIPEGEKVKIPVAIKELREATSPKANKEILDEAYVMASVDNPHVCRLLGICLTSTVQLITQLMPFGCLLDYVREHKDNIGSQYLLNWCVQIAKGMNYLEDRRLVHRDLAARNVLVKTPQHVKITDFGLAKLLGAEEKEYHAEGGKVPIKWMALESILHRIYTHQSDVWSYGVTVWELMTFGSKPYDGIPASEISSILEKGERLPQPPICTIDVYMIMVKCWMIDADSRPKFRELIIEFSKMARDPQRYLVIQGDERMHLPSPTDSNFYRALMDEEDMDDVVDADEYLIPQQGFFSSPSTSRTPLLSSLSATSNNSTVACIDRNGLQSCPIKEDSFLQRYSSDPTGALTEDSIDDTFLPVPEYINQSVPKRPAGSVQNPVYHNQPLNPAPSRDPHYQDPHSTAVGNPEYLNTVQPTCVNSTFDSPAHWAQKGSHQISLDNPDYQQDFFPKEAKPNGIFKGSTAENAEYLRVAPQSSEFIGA

T1 sequence (Q02750 whole entry): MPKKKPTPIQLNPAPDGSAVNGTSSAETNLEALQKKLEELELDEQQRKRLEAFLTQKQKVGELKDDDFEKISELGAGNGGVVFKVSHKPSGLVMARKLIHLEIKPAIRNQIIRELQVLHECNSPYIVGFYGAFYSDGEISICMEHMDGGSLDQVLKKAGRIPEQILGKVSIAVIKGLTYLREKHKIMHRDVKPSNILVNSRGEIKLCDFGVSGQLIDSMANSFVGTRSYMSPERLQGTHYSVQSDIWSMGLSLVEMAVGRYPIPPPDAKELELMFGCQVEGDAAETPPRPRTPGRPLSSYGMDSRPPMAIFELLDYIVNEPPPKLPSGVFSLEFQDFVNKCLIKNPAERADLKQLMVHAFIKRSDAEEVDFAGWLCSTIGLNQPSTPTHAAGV

Row | Structure (SMILES) | IC50 [1] [nM] | IC50 [2] [nM] | IC50 [3] [nM] | IC50 [4] [nM] | IC50 [5] [nM] | IC50 [6] [nM] | IC50 [7] [nM]
1 | COc1cc2c(Nc3ccc(Sc4nc(C)c(C)n4C)c(Cl)c3)c(C#N)cnc2cc1OCCCN1CCOCC1 | 2 | 900 | 342 | – | – | – | –
2 | COc1cc2c(Nc3ccc(Sc4nccs4)c(Cl)c3)c(C#N)cnc2cc1OCCCN1CCOCC1 | 9 | 2700 | 56 | – | – | – | –
3 | CCN1CCN(CCCOc2cc3ncc(C#N)c(Nc4ccc(Sc5nccn5C)c(Cl)c4)c3cc2OC)CC1 | – | > 1000 | – | – | – | – | –
4 | COc1cc2c(Nc3ccc(Sc4nccn4C)c(Br)c3)c(C#N)cnc2cc1OCCCN1CCOCC1 | 2 | 5200 | 5 | – | – | – | –
5 | COc1cc2c(Nc3ccc(Sc4nccn4C)c(Cl)c3)c(C#N)cnc2cc1OCCCN1CC[S+]([O-])CC1 | 2 | > 1000 | 36 | – | – | – | –
6 | COc1cc2c(Nc3ccc(Sc4ncc(C)n4C)c(Cl)c3)c(C#N)cnc2cc1OCCCN1CCOCC1 | 1 | > 1000 | 325 | – | – | – | –
7 | COc1cc2c(Nc3ccc(Sc4ccccn4)c(Cl)c3)c(C#N)cnc2cc1OCCCN1CCOCC1 | 8 | > 1000 | 200 | – | – | – | –
8 | COc1cc2c(Nc3ccc(Sc4nccn4C)c(Cl)c3)c(C#N)cnc2cc1OCCCN1CCOCC1 | 2 | > 1000 | 5 | > 1000 | 8 | > 1000 | > 1000
9 | COc1cc2c(Nc3ccc(Cc4nccn4C)c(Cl)c3)c(C#N)cnc2cc1OCCCN1CCOCC1 | 212 | 5500 | 380 | – | – | – | –
10 | CCOc1cc2ncc(C#N)c(Nc3ccc(Sc4nccn4C)c(Cl)c3)c2cc1OCC | 10 | > 1000 | 7 | – | – | – | –
11 | COc1cc2c(Nc3ccc(Sc4nccn4C)c(C)c3)c(C#N)cnc2cc1OCCCN1CCOCC1 | – | 3200 | 36 | – | – | – | –
12 | COc1cc2c(Nc3ccc(Sc4nccn4C)cc3)c(C#N)cnc2cc1OCCCN1CCOCC1 | – | 4700 | 43 | – | – | – | –
13 | COc1cc2c(Nc3ccc(Sc4nccn4C)c(Cl)c3)c(C#N)cnc2cc1OCCCN1CCCC1 | 4 | > 1000 | 10 | – | – | – | –
14 | COc1cc2c(Nc3ccc(Oc4ccccc4)cc3)c(C#N)cnc2cc1OCCCN1CCOCC1 | 4 | 5500 | 400 | > 1000 | > 1000 | > 1000 | > 1000
15 | O=C(NOCC1CC1)c1ccc(F)c(F)c1Nc1ccc(I)cc1Cl [CI-1040] | – | > 1000 | 131 | – | – | – | –
